Laboratory results published in patent publication US10316049B2, “Tank-binding kinase inhibitor compounds” (Gilead Sciences, Inc., priority 2015, dated 2019).

Columns and labels:
TBK1 = target: T1, TBK1 (Homo sapiens, UniProt Q9UHD2); assay: TR-FRET enzymatic activity assay, TBK1; type: biochemical; also: full length recombinant TBK1 at 2.5 nM
T1 construct: TBK1 and IKKε were expressed and purified as full length recombinant proteins; made in house
T1 sequence (Q9UHD2 1-729): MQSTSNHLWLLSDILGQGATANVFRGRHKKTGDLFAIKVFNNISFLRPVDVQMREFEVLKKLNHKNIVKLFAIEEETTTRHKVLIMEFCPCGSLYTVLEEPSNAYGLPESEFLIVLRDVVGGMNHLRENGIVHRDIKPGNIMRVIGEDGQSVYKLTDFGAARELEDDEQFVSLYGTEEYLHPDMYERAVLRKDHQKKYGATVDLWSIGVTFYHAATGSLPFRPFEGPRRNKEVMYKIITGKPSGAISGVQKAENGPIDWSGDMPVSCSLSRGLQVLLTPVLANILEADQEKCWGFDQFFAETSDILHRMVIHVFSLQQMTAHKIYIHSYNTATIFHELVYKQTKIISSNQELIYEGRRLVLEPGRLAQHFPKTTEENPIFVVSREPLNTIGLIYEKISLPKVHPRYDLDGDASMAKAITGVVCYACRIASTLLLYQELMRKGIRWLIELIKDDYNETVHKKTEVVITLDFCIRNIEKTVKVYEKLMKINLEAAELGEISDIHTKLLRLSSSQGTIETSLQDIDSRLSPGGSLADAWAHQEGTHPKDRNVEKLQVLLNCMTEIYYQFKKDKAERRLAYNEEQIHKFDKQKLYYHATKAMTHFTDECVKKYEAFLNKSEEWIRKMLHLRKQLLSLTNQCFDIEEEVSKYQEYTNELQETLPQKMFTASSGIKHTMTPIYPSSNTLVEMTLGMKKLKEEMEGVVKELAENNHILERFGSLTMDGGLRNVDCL
Procedure, shortened: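 Full-length recombinant enzymes phosphorylated a biotinylated Ser/Thr peptide for 240 min at 25 °C, stopped with EDTA. Phosphopeptide detected by TR-FRET (streptavidin XL665, Eu-cryptate anti-phospho antibody). IC50 from four-parameter fits normalized to 1 μM staurosporine and DMSO controls, as geometric means of at least four determinations.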

IKKε = target: T2, IKKε (Homo sapiens, UniProt Q14164); assay: TR-FRET enzymatic activity assay, IKKε; type: biochemical; details: read-out: IKKϵ IC50; also: full length recombinant IKKε at 0.3 nM
T2 construct: TBK1 and IKKε were expressed and purified as full length recombinant proteins; made in house
T2 sequence (Q14164 1-716): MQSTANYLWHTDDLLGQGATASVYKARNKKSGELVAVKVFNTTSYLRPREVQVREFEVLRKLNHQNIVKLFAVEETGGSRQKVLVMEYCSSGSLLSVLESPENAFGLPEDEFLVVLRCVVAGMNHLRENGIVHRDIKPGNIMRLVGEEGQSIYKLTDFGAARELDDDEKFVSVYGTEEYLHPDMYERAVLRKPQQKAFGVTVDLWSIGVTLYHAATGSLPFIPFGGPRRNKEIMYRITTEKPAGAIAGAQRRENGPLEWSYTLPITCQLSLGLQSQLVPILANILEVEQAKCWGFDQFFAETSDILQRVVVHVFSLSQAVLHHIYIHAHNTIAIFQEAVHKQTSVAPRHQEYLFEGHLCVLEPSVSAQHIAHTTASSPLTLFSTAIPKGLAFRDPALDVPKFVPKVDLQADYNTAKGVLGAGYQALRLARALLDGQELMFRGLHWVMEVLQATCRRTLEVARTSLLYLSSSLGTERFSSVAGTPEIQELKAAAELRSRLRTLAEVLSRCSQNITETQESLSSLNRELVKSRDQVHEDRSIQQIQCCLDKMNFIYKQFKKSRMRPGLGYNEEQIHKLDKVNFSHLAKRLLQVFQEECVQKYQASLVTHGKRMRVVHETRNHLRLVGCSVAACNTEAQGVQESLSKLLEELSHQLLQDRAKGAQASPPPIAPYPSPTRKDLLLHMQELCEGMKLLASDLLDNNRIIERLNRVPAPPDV
Procedure, shortened: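 Full-length recombinant IKKε phosphorylated a biotinylated Ser/Thr peptide for 240 min at 25 °C; EDTA stop. Phospho-peptide detected by TR-FRET with streptavidin-XL665 (125 nM) and Eu-cryptate anti-phospho antibody. Normalised to staurosporine and DMSO controls; IC50 from four-parameter fit, geometric mean of ≥4 runs.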

| SMILES | IC50 (TBK1) [nM] | IC50 (IKKε) [nM] |
| --- | --- | --- |
| N#Cc1cc(-c2cc(NC(=O)C3CC3)ncn2)ccc1O[C@@H]1CCN(C(=O)CO)CC1(F)F [Example 110, (R)—N-(6-(3-cyano-4-((3,3-difluoro-1-(2-hydroxyacetyl)piperidin-4-yl)oxy)phenyl)pyrimidin-4-yl)cyclopropanecarboxamide] | 317 | 737 |
| N#Cc1cc(-c2cc(NC(=O)C3CC3)ncn2)ccc1O[C@@H]1CCN(C(=O)CO)C[C@H]1F [Example 111, N-(6-(3-cyano-4-(((3R,4R)-3-fluoro-1-(2-hydroxyacetyl)piperidin-4-yl)oxy)phenyl)pyrimidin-4-yl)cyclopropanecarboxamide] | 105 | 254 |
| C[C@H]1C[C@@H](Oc2ccc(-c3cc(NC(=O)C4CC4)ncn3)cc2C#N)CCN1C(=O)CO [Example 112, N-(6-(3-cyano-4-(((2S,4S)-1-(2-hydroxyacetyl)-2-methylpiperidin-4-yl)oxy)phenyl)pyrimidin-4-yl)cyclopropanecarboxamide] | 107 | 209 |
| COc1ccc([C@@H]2C[C@H]2C(=O)Nc2cc(-c3ccc(O[C@H]4CCN(C(=O)CO)CC4(F)F)c(C#N)c3)ncn2)cn1 [Example 113, (1R,2R)—N-(6-(3-cyano-4-(((S)-3,3-difluoro-1-(2-hydroxyacetyl)piperidin-4-yl)oxy)phenyl)pyrimidin-4-yl)-2-(6-methoxypyridin-3-yl)cyclopropane-1-carboxamide] | 8.1 | > 1000 |
| Cn1ccnc1[C@@H]1C[C@H]1C(=O)Nc1cc(-c2ccc(O[C@H]3CCN(C(=O)CO)CC3(F)F)c(C#N)c2)ncn1 [Example 114, (1R,2R)—N-(6-(3-cyano-4-(((S)-3,3-difluoro-1-(2-hydroxyacetyl)piperidin-4-yl)oxy)phenyl)pyrimidin-4-yl)-2-(1-methyl-1H-imidazol-2-yl)cyclopropane-1-carboxamide] | 181 | 36 |
| N#Cc1cc(-c2ccnc(NC(=O)[C@@H]3C[C@H]3c3ccc(C4CC4)nc3)c2)ccc1O[C@H]1CCN(C(=O)CO)CC1(F)F [Example 115, (1R,2R)—N-(4-(3-cyano-4-(((S)-3,3-difluoro-1-(2-hydroxyacetyl)piperidin-4-yl)oxy)phenyl)pyridin-2-yl)-2-(6-cyclopropylpyridin-3-yl)cyclopropane-1-carboxamide] | 8.1 | 7.1 |
| N#Cc1cc(-c2ccnc(NC(=O)C3CC34CCOC4)c2)ccc1OC1CCOCC1 (stereo not drawn) [Example 117, N-(4-(3-Cyano-4-((tetrahydro-2H-pyran-4-yl)oxy)phenyl)pyridin-2-yl)-5-oxaspiro[2.4]heptane-1-carboxamide] | 851 | > 1000 |
| N#Cc1cc(-c2ccnc(NC(=O)[C@H]3[C@@H]4COC[C@@H]43)c2)ccc1OC1CCOCC1 [Example 118, (1R,5S,6R)—N-(4-(3-cyano-4-((tetrahydro-2H-pyran-4-yl)oxy)phenyl)pyridin-2-yl)-3-oxabicyclo[3.1.0]hexane-6-carboxamide] | 871 | 632 |
| Cn1cc([C@@H]2C[C@H]2C(=O)Nc2cc(-c3ccc(O[C@H]4CCN(C(=O)CO)CC4(F)F)c(C#N)c3)ccn2)cn1 [Example 121, (1R,2R)—N-(4-(3-cyano-4-(((S)-3,3-difluoro-1-(2-hydroxyacetyl)piperidin-4-yl)oxy)phenyl)pyridin-2-yl)-2-(1-methyl-1H-pyrazol-4-yl)cyclopropane-1-carboxamide] | 7.2 | 6.2 |
| Cn1cc([C@H]2C[C@@H]2C(=O)Nc2cc(-c3ccc(O[C@H]4CCN(C(=O)CO)CC4(F)F)c(C#N)c3)ccn2)cn1 [Example 122, (1S, 2S)—N-(4-(3-cyano-4-(((S)-3,3-difluoro-1-(2-hydroxyacetyl)piperidin-4-yl)oxy)phenyl)pyridin-2-yl)-2-(1-methyl-1H-pyrazol-4-yl)cyclopropane-1-carboxamide] | 6 | 4.9 |
| N#Cc1cc(-c2ccnc(NC(=O)[C@H]3[C@@H]4CNC[C@@H]43)c2)ccc1OC1CCOCC1 [Example 124, (1R,5S,6R-rel)-N-(4-(3-cyano-4-((tetrahydro-2H-pyran-4-yl)oxy)phenyl)pyridin-2-yl)-3-azabicyclo[3.1.0]hexane-6-carboxamide] | 628 | 316 |
| Cn1cc([C@H]2C[C@@H]2C(=O)Nc2cc(-c3ccc(O[C@H]4CCN(C(=O)CO)C[C@H]4F)c(C#N)c3)ccn2)cn1 [Example 126, (1S,2S)—N-(4-(3-Cyano-4-(((3R,4S)-3-fluoro-1-(2-hydroxyacetyl)piperidin-4-yl)oxy)phenyl)pyridin-2-yl)-2-(1-methyl-1H-pyrazol-4-yl)cyclopropane-1-carboxamide] | 5.7 | 14 |
| N#Cc1cc(-c2cc(NC(=O)[C@@H]3C[C@H]3c3cccnc3)ncn2)ccc1O[C@H]1CCN(C(=O)CO)CC1(F)F [Example 129, (1,2-Trans)-N-(6-(3-cyano-4-(((S)-3,3-difluoro-1-(2-hydroxyacetyl)piperidin-4-yl)oxy)phenyl)pyrimidin-4-yl)-2-(pyridin-3-yl)cyclopropane-1-carboxamide] | 9.3 | 32.2 |
| Cn1cc([C@@H]2C[C@H]2C(=O)Nc2cc(-c3ccc(O[C@H]4CCN(C(=O)[C@@H](O)CO)C[C@H]4F)c(C#N)c3)ccn2)cn1 [Example 130, (1,2-Trans)-N-(4-(3-cyano-4-(((3R,4S)-1-((S)-2,3-dihydroxypropanoyl)-3-fluoropiperidin-4-yl)oxy)phenyl)pyridin-2-yl)-2-(1-methyl-1H-pyrazol-4-yl)cyclopropane-1-carboxamide] | 6.1 | 15.6 |
| Cn1cc([C@@H]2C[C@H]2C(=O)Nc2cc(-c3ccc(O[C@H]4CCN(C(=O)[C@@H](O)CO)CC4(F)F)c(C#N)c3)ccn2)cn1 [Example 131, (1,2-Trans)-N-(4-(3-cyano-4-(((S)-1-((S)-2,3-dihydroxypropanoyl)-3,3-difluoropiperidin-4-yl)oxy)phenyl)pyridin-2-yl)-2-(1-methyl-1H-pyrazol-4-yl)cyclopropane-1-carboxamide] | 6.6 | 11.6 |
| Cn1cc([C@@H]2C[C@H]2C(=O)Nc2cc(-c3ccc(O[C@H]4CCN(C(=O)[C@@H](O)CO)CC4(F)F)c(C#N)c3)ncn2)cn1 [Example 132, (1,2-Trans)-N-(6-(3-cyano-4-(((S)-1-((S)-2,3-dihydroxypropanoyl)-3,3-difluoropiperidin-4-yl)oxy)phenyl)pyrimidin-4-yl)-2-(1-methyl-1H-pyrazol-4-yl)cyclopropane-1-carboxamide] | 4.7 | 12.3 |
| N#Cc1cc(-c2ccnc(NC(=O)[C@@H]3C[C@H]3c3cccnc3)c2)ccc1O[C@H]1CCN(C(=O)[C@@H](O)CO)CC1(F)F [Example 133, (1,2-Trans)-N-(4-(3-cyano-4-(((S)-1-((S)-2,3-dihydroxypropanoyl)-3,3-difluoropiperidin-4-yl)oxy)phenyl)pyridin-2-yl)-2-(pyridin-3-yl)cyclopropane-1-carboxamide] | 6.4 | 9.9 |
| N#Cc1cc(-c2ccnc(NC(=O)[C@@H]3C[C@H]3c3cccnc3)c2)ccc1O[C@H]1CCN(C(=O)CO)CC1(F)F [Example 134, (1,2-Trans)-N-(4-(3-cyano-4-(((S)-3,3-difluoro-1-(2-hydroxyacetyl)piperidin-4-yl)oxy)phenyl)pyridin-2-yl)-2-(pyridin-3-yl)cyclopropane-1-carboxamide] | 7.4 | 10.9 |
